Reference: US9546129B2, “DTPA prodrugs, compositions thereof, and methods of using the same” (priority 2012, dated 2017)

How the values were obtained:
[1] = Stability of C2E2 in plasma (rat); assay type: in vitro ADME; conditions: 37° C., up to two hours
Description: Prior to the study, 975 μL of plasma (Rat, Beagle and Human) was preheated to 37° C. in Eppendorff tubes and the test compound (C2E2) was prepared in DI water (10 mg/mL). The C2E2 was from Lot 050 obtained using Method 2. To initiate the study, 25 μL of the C2E2 solution was added to the pre-heated plasma and briefly vortexed, to mix. At 0, 15, 30, 60 and 120 minutes a 100 μL sample of plasma was taken, an equal volume of cold acetonitrile was added and mixed to precipitate plasma proteins. Samples were centrifuged at 4° C. and 14,000×g for 10 minutes to remove precipitated proteins, the supernatant was collected and the C2E2 concentration determined by HPLC-CAD. All conditions were repeated in triplicate.
HPLC Detection Methods: C2E2 analysis was performed on a prominence HPLC (Shimadzu Corporation, Kyoto, Japan) equipped with a Corona Ultra charged […] detector (CAD) (Thermo scientific, Sunnyvale, Calif.). […]
The gradient is 0.01-34.99 min: 22% B; 35.00-44.99 min: 33% B; 45.00-60.00 min: 38% B. The flow rate is 1.0 mL/min, a Thermo Hypersil ODS column (150 mm 4.6 mm i.d. with 5.0 μm particles) will be used, injection volume will be 10 μL and column oven temperature maintained at 25° C. […] The limit of quantification is 0.35 μg/mL. […]

^241Am contaminated rats = experiment: Once vs twice daily dosing ^241Am decorporation study in rats; assay type: in vivo, Sprague Dawley rat; conditions: for Total Decorporation: seven days after IM ^241Am
Description: The animal study was conducted according to a protocol approved by The University of North Carolina at Chapel Hill Institutional Animal Care and Use Committee. Sixteen male Sprague Dawley rats were contaminated with ^241Am(NO3)3 (0.25 μCi) by intramuscular injection (0.1 mL, 0.1 M HNO3) into the right hind leg, under isoflurane anesthesia. Immediately after injection, body weights were recorded (Day 0 weight) and animals placed in individual metabolic cages. The 16 rats were assigned to four groups; untreated control, 5 daily oral gavage doses of 600 mg/kg C2E2 once daily, 5 days of oral gavage treatment of 300 mg/kg C2E2 twice daily or 5 daily intravenous doses of Zn-DTPA solution (13.3 mg/kg) via a jugular vein catheter. The C2E2 was from Lot 050 obtained using Method 2. The C2E2 dosing solution utilized was a 10% w/w solution in water. […] Excreted urine and feces were collected at 2, 4, 8, 10, 12, 14, 18, 20 and 24 hours after the first dose and daily for the remainder of the study. The samples were transferred to 20 mL scintillation vials, weighed and placed in a gamma counter (Wizard2 2480, Perkin Elmer) for detection of ^241Am gamma activity. In addition, following necropsy, selected tissues were removed, weighed and placed in a gamma counter (Wizard2 2480, Perkin Elmer) for detection of ^241Am gamma activity. The total amount of ^241Am administered to the animals was determined by quantifying the 59.7 keV photons emitted by ^241Am in duplicate aliquots (100 μL) of the injection solution using a gamma counter (wizard series, Perkin-Elmer). A counting window from 40-80 keV and a 60-second counting time were used for acquisition and each reading was corrected for background at acquisition. All experimental tissues and samples were counted using the same gamma counter and protocol. For all the samples, ^241Am content was expressed as a percentage of the initial dose. The femur from the leg opposite to the injection site was scaled by a factor of 20 to estimate total skeletal ^241Am burden.

[2] = test system: Salmonella typhimurium tester strains TA98, TA100, TA1535, and TA1537; experiment: Bacterial Reverse Mutation Assay (Salmonella); assay type: cell-based
Description: The objective of this study was to evaluate C2E2 for its ability to induce reverse mutations at the histidine locus in Salmonella typhimurium tester strains TA98, TA100, TA1535, and TA1537, and at the tryptophan locus of Escherichia coli (E. coli) strain WP2uvrA in the presence or absence of an exogenous mammalian metabolic activation system (S9).
C2E2 was evaluated in an initial mutagenicity assay in all five tester strains at dose levels of 5.00, 16.0, 50.0, 160, 500, 1600, and 5000 μg/plate with and without S9. C2E2 was from Lot 050 obtained using Method 2. C2E2 was prepared in Cell Culture Grade Water vehicle and formed a transparent colorless solution. […] The reductions in the numbers of revertant colonies and the enhanced background lawn growth are indicative of C2E2 treatment-related toxicity. With exception to the enhanced background lawn in TA1537 without S9, all other background lawns in all strains, with and without S9, were normal indicating there was appropriate bacterial growth during treatment to express a mutagenic event. There were no relevant increases in the numbers of revertant colonies observed at any dose level with any strain in the absence or presence of S9 metabolic activation.

CCOC(=O)CN(CCN(CCN(CC(=O)O)CC(=O)OCC)CC(=O)O)CC(=O)O [C2E2, 6,9-bis(carboxymethyl)-3-(2-ethoxy-2-oxoethyl)-11-oxo-12-oxa-3,6,9-triazatetradecan-1-oic acid]
Metabolism in plasma (observation) [1]: minimal or not detected
Effect of dividing the dosage (twice daily vs once daily) on total decorporation (^241Am contaminated rats; 300 mg/kg BD vs 600 mg/kg OD, male rats): did not significantly alter total decorporation
Total Decorporation (^241Am contaminated rats; C2E2 300 mg/kg oral gavage twice daily for 5 days, male rats): 43.6 ± 1.6 % of injected dose
Total Decorporation (^241Am contaminated rats; C2E2 600 mg/kg oral gavage once daily x5, male rats): 39.7 ± 2.6 % of injected dose
Dose level with reductions in mean numbers of revertant colonies (toxicity) ([2]; TA100, TA1535, TA1537, without S9): 5000 μg/plate
Dose level with reductions in mean numbers of revertant colonies (toxicity) ([2]; TA1535, TA1537, with S9): ≥ 500 μg/plate
Mutagenicity (reverse mutations at the histidine locus) ([2]; up to 5000 μg/plate, with and without S9): negative
